According to patent US20180230160A1, “2-AMINO-7A-PHENYL-3,4,4A,5,7,7A-HEXAHYDROFURO[3,4-B]PYRIDINES AS BACE1 INHIBITORS” (H. Lundbeck A/S, priority 2015, published 2018):
Like-named read-outs stand apart in the source and are kept apart here.

How the values were obtained:
[1] = Compound exposure in rat brain and plasma after oral dosing (DMPK analysis); format: in vivo; conditions: male, Sprague Dawley, 3 hours post dose; for concentration at 3 h: read-out: Exp (exposure); for Kp at 3 h: brain/plasma, read-out: Brain/Plasma ratio
Method: (§1) Young adult Male Sprague Dawley rats of approximately 250 g weight were purchased from Charles River and received 0-30 mg/kg of vehicle (10% HP betaCD+1M MeSO4, pH 2.5) or test compounds (dissolved in vehicle) only by oral gavage (p.o). The compounds are dosed at a volume of 5 ml/kg. Cohorts of 5-10 animals were established for each treatment condition.
(§2) At T=180 minutes after initial dosing the animals were stunned and decapitated with a guillotine. Trunk-blood was sampled in EDTA coated tubes after decapitation of the animal. The blood was centrifuged at 2200G at 4° C. for 15 minutes and the plasma was collected and frozen at −80° C. The blood was aliquoted for Aβ ELISA and DMPK analysis. Immediately following sacrifice, the brain was extracted and split into 2 halves. The right hemibrains were snap frozen on dry ice and stored at −80° C. The left half was dissected; with the front forebrain taken for Aβ ELISA and the remainder used for DMPK analysis. These samples were also snap frozen on dry ice and stored at −80° C. until use for analysis.
The results of the administration of representative Compounds of Examples 1, 2, 5, […], of brain and plasma samples collected at 3 hours post dose and then following exposures, as described above, are tabulated below.

human BACE1 = human BACE1 (Homo sapiens, UniProt P56817); test: BACE1 efficacy assay (FRET-based, commercial BACE1 kit); format: biochemical; parameters: purchased Life Technologies P2985; conditions: 10 μM test compound
Sequence of human BACE1 (P56817 46-501): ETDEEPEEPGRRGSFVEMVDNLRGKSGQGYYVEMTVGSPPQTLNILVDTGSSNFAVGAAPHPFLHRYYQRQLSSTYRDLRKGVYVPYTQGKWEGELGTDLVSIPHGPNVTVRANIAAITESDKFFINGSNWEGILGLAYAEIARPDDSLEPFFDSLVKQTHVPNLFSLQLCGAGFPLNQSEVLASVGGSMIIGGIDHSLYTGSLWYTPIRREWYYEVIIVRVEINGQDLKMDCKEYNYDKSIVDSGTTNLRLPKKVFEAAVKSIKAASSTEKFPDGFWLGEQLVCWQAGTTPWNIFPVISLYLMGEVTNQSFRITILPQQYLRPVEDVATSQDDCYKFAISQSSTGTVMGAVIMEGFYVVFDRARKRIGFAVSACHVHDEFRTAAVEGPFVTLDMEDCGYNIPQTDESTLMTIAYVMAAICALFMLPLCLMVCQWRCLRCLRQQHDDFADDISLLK
Method: The efficacy assay was performed as a FRET-based assay using a commercially available BACE1 kit (Life Technologies, P2985). 2 μl test compound at 10 μM (final concentration) and 15 μl BACE1 enzyme from the kit (final concentration 3 nM) were preincubated for 15 minutes at room temperature before addition of 15 μl of substrate from the kit (250 nM final concentration) and incubated for additional 90 minutes at room temperature. The assay plate was subsequently read in a Pherastar (Ex540/Em590). The enzyme activity observed in presence of test compound were normalized to the enzyme activity observed in presence of buffer and 10 μM (final concentration) of the high affinity BACE1 reference inhibitor (S)-6-[3-Chloro-5-(5-prop-1-ynyl-pyridin-3-yl)-thiophen-2-yl]-2-imino-3,6-dimethyl-tetrahydropyrimidin-4-one, respectively. The efficacy of the test compounds was evaluated at 10 μM (final concentration) and defined as the percent inhibition of the enzyme activity using the equation % inhibition=100%−normalized enzyme activity in percent.

P-gp (MDR1) = test: MDCK-MDR1 assay (permeability, efflux ratio); format: in vitro ADME; conditions: dog, Papp BA/Papp AB, 60-minute incubation
Aβ40 peptide = test: Assessment of Aβ peptide levels in rat brain and plasma following BACE1 inhibition (Aβ40 ELISA); format: in vivo; conditions: 3 hours post dose, vs vehicle
Method: Assessment of Aβ Peptide Levels in Rat Brain and Plasma Following BACE1 Inhibition. Animals.
as §1, §2
The cortex samples were thawed slightly on wet ice before they were homogenized with a small volume dispersing instrument (T10 basic ULTRA-TURRAX®) which was set at speed 5 for approximately 5-7 sec. The tissue was processed in a 10 times volume of the weight, for example 100 mg of tissue was homogenized in 1000 μL of Homogenization buffer. Homogenization buffer: 50 ml Milli Q water+50 nM NaCl+0.2% Diethylamin (DEA)+1 tablet of Complete Protease inhibitor cocktail+1 nM 4-(2-aminoethyl) benzenesulfonyl fluoride hydrochloride irreversible serine protease inhibitor (AEBSF).
After homogenization 450 μL aliquots of the samples are collected into a 1.5 ml Eppendorf tube and placed on wet ice, 0.5% NP-40 (50 ul) was added to all samples and then they were incubated on ice for 30 min. After which all samples were sonicated using an Ultrasonic homogenizer with 20 kHz homogeneous sound (SONOPLUS HD2070, Bandelin Electronic) 10 pulse set at 12-13% power to extract all the Aβ species. The samples were then centrifuged (Ole Dich 157 MPRF Micro centrifuge) at 20000G for 20 minutes at 4° C. After centrifugation 285 μL of the supernatant was pipetted into 600 μL microtubes tubes and neutralized with 15 μL of 1M Tris-HCL buffer.
WAKO 294-62501 Human/Rat Abeta amyloid (40) kit was used for all ELISA analyses. 30 μL plasma samples or 30 μL of the cortex supernatants generated as described above were placed in 600 μL microtubes tubes on wet ice. To this 30 μL of 8M urea (AppliChem A1049, 9025) was added to generate a 2-fold dilution. Both plasma and cortex supernatants were incubated on ice for 30 min. Standard rows were prepared from the standard peptide stock provided in the kit and standard diluent containing 1.6M urea (200 μL 8M urea+800 μL of standard diluent) and 0.8M urea (400 μL 8M Urea+3600 μL Standard diluent). A serial 2-fold dilution of Aβ40 from 100 pmol/ml to 0 pmol/L was prepared for the assay.
After incubation with urea, all samples were further diluted by addition of 5 times standard diluent from the Kit. This was done by adding 240 μL Standard Diluent to 60 μL sample/urea mixture, which was then mixed well. 100 μL of each diluted sample was pipetted into designated wells of the ELISA plate in duplicates. The plate was then covered and incubated overnight at 4° C. The following day, the ELISA kit was brought to room temperature before use. The incubated plate was washed 5 times with the 20× washing solution diluted in Milli Q water. 100 μL HRP-conjugate was applied to each well, and the plate was covered and incubates at 4° C. for 1 hr. The wash was repeated again for 5 times. 100 μL 3,3′,5,5′-Tetramethylbenzidine (TMB) solution was applied to each well and the plate was covered and incubated in the dark at room temperature for 30 minutes. […]

Structure (SMILES): COc1cnc(C(=O)Nc2ccc(F)c([C@]34COC[C@@]3(F)C[C@@](C)(F)C(N)=N4)c2)cn1 [Example 7, N-(3-((3R,4aR,7aS)-2-amino-3,4a-difluoro-3-methyl-3,4,4a,5,7,7a-hexahydrofuro[3,4-b]pyridin-7a-yl)-4-fluorophenyl)-5-methoxypyrazine-2-carboxamide]
- concentration at 3 h ([1]; Brain, 10 mg/kg p.o.): 93 ng/g
- concentration at 3 h ([1]; Brain, 30 mg/kg p.o.): 479 ng/g
- concentration at 3 h ([1]; Plasma, 10 mg/kg p.o.): 88 ng/g
- concentration at 3 h ([1]; Plasma, 30 mg/kg p.o.): 239 ng/g
- Kp at 3 h ([1]; 10 mg/kg p.o.): 1.05
- Kp at 3 h ([1]; 30 mg/kg p.o.): 2.01
- inhibition at 10 µM (human BACE1): 104%
- efflux ratio at 60 min, 0.5 μM (P-gp (MDR1)): 0.94
- Aβ40 reduction (Aβ40 peptide; Brain, 10 mg/kg p.o.): 48%
- Aβ40 reduction (Aβ40 peptide; Brain, 30 mg/kg p.o.): 64%
- Aβ40 reduction (Aβ40 peptide; Plasma, 10 mg/kg p.o.): 42%
- Aβ40 reduction (Aβ40 peptide; Plasma, 30 mg/kg p.o.): 50%

Structure (SMILES): [2H]C([2H])([2H])Oc1ccc(C(=O)Nc2ccc(F)c([C@]34COC[C@H]3C[C@@](F)(CF)C(N)=N4)c2)nc1 [Example 22, N-(3-((3S,4aS,7aS)-2-amino-3-fluoro-3-(fluoromethyl)-3,4,4a,5-tetrahydrofuro[3,4-b]pyridin-7a-yl)-4-fluorophenyl)-5-(methoxy-d3)picolinamide]
- concentration at 3 h ([1]; Brain, 10 mg/kg p.o.): 153 ng/g
- concentration at 3 h ([1]; Brain, 30 mg/kg p.o.): 776 ng/g
- concentration at 3 h ([1]; Plasma, 10 mg/kg p.o.): 399 ng/g
- concentration at 3 h ([1]; Plasma, 30 mg/kg p.o.): 1830 ng/g
- Kp at 3 h ([1]; 10 mg/kg p.o.): 0.38
- Kp at 3 h ([1]; 30 mg/kg p.o.): 0.42
- inhibition at 10 µM (human BACE1): 99%
- efflux ratio at 60 min, 0.5 μM (P-gp (MDR1)): 1.85
- Aβ40 reduction (Aβ40 peptide; Brain, 10 mg/kg p.o.): 23%
- Aβ40 reduction (Aβ40 peptide; Brain, 30 mg/kg p.o.): 48%
- Aβ40 reduction (Aβ40 peptide; Plasma, 10 mg/kg p.o.): 33%
- Aβ40 reduction (Aβ40 peptide; Plasma, 30 mg/kg p.o.): 43%
